Experiment [1] relates to HIV-1 reverse transcriptase (Human immunodeficiency virus 1). Nature of the experiment: Inhibitory concentration against wild-type virus K103N/[…] and HIV-1 RT double mutant in whole cell antiviral assay.
Experiment [2] addresses Human immunodeficiency virus type 1 reverse transcriptase (Human immunodeficiency virus 1, UniProt Q72547). Nature of the experiment: Tested for inhibitory concentration against HIV-1 non-nucleoside reverse transcriptase.
Experiment [3] concerns Human immunodeficiency virus type 1 reverse transcriptase (Human immunodeficiency virus 1), Q72547 [K103N].
Description: Inhibitory concentration against wild-type virus K103N and HIV-1 RT mutant in a whole cell antiviral assay
Experiment [4] concerns the target Human immunodeficiency virus type 1 reverse transcriptase (Human immunodeficiency virus 1) (UniProt Q72547).
Description: Inhibitory concentration against HIV-1 reverse transcriptase
In experiment [5] the test system is HIV-1 reverse transcriptase (Human immunodeficiency virus 1). Nature of the experiment: Inhibitory concentration against wild-type virus K103N mutant in a whole cell antiviral assay.
Experiment [6] shares this test system. Nature of the experiment: Inhibitory concentration against wild-type virus K103N/[…] and HIVdouble mutant in a whole cell antiviral assay.

Structures are written as SMILES.

As usually defined, the IC90 is the concentration at which the effect reaches the 90% level. A high value points to weaker potency. What is called IC50 is the concentration at which inhibition is half-maximal. A lower IC50 goes with greater potency. In the case of `COc1c(Cl)ccc2c1C(C#Cc1ccccc1)(C(F)(F)F)NC(=O)N2` (stereo unspecified), the results for the 90% effect concentration (IC90) in experiment [1], in experiment [3] and in experiment [4] were 5520 nM, 113 nM and 7.9 nM, respectively. Moreover, the 50% inhibitory concentration (IC50) in experiment [2] is 144 nM.

On to `O=C1Nc2ccc(Cl)c3c2C(C(F)(F)F)(C=C(C2CC2)O3)N1` (stereo unspecified), for which half-maximal inhibition in experiment [2] (IC50) required 90 nM. Besides, the values for the IC90 in experiment [3] and in experiment [4] were 76 nM and 3.6 nM, respectively.

As for `O=C1Nc2ccc(Cl)c(O)c2C(C#Cc2ccccc2)(C(F)(F)F)N1` (stereo unspecified), the IC90 was determined as 1940 nM in experiment [1], 30 nM in experiment [3] and 6.8 nM in experiment [4]. Moreover, the midpoint of inhibition in experiment [2], the IC50, lay at 174 nM.

`O=C1Nc2ccc(Cl)c3c2C(C(F)(F)F)(C=C(c2cccnc2)O3)N1` (stereo unspecified): the figures for the concentration for an effect of 90% (IC90) in experiment [1], in experiment [3] and in experiment [4] were 897 nM, 76 nM and 4.6 nM, respectively. The compound also came in with a half-maximal inhibitory concentration (IC50) in experiment [2] of 122 nM.

`O=C1Nc2ccc(Cl)cc2[C@@](C#CC2CC2)(C(F)(F)F)N1` showed an IC90 in experiment [1] of 1100 nM. In other words, the single-digit micromolar range.

`O=C1Nc2ccc(Cl)c3c2C(C(F)(F)F)(C=C(c2ccccc2)O3)N1` (stereo unspecified): the results for the IC90 in experiment [1], in experiment [3] and in experiment [4] were 1660 nM, 46 nM and 8.2 nM, respectively. The same compound came in with a half-maximal inhibitory concentration (IC50) in experiment [2] of 244 nM.

Turning to `COc1c(Cl)ccc2c1C(C#CC1CC1)(C(F)(F)F)NC(=O)N2` (stereo unspecified), it took 70 nM to reach half-maximal inhibition in experiment [2] (IC50). The figures for the 90% effect concentration (IC90) in experiment [3] and in experiment [4] were 7.5 nM and 3.5 nM, respectively.

Consider `COc1c(Cl)ccc2c1C(C#Cc1cccnc1)(C(F)(F)F)NC(=O)N2` (stereo unspecified), for which the figures for the IC90 in experiment [1], in experiment [3] and in experiment [4] were 2540 nM, 147 nM and 7.1 nM, respectively. In experiment [2], this compound came in with an IC50 of 139 nM.

For `O=C1Nc2ccc(Cl)cc2[C@@](/C=C/C2CC2)(C(F)(F)F)N1`, the concentration for an effect of 90% (IC90) in experiment [5] is 27 nM; in experiment [6] it was 1690 nM.

Consider `O=C1Nc2ccc(Cl)c(O)c2C(C#CC2CC2)(C(F)(F)F)N1` (stereo unspecified), for which the IC90 in experiment [1] was 3020 nM; in experiment [3], 28 nM; in experiment [4], 3.6 nM. The IC50 in experiment [2] came out at 54 nM.

Regarding `Fc1ccc2c3c1S/C(=C\c1cccnc1)C3(C(F)(F)F)NC(S)=N2` (stereo unspecified), the values for the IC90 in experiment [3] and in experiment [4] were 84 nM and 7 nM, respectively.

`O=C1Nc2ccc(Cl)cc2C(C#Cc2ccccc2)(C(F)(F)F)N1` (stereo unspecified) had an IC90 in experiment [3] of 7 nM.

The values are drawn from ChEMBL document CHEMBL1134815, “3,3a-Dihydropyrano[4,3,2-de]quinazolin-2(1H)-ones are potent non-nucleoside reverse transcriptase inhibitors” (Bioorg Med Chem Lett, 2001).
